Where only a bound is given, the exact number is not on record here.

Chain of PKM2 (P14618 whole entry): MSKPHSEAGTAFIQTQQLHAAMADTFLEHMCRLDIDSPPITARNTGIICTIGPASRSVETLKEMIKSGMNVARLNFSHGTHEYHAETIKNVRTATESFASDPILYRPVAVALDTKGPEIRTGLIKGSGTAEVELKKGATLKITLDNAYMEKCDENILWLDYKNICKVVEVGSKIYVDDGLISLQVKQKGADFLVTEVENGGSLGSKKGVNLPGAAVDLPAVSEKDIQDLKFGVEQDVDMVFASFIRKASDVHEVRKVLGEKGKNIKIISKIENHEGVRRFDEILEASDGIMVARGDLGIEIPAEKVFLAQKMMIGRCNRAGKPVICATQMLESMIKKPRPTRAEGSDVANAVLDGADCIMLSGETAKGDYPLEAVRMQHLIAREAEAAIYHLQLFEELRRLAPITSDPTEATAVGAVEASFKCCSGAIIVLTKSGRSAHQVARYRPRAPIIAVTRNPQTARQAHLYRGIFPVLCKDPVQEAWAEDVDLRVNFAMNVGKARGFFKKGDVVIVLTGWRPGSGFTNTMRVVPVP

This experiment addresses PKM2 (Homo sapiens, UniProt P14618). Description: PKM2 Assay (activation; LDH-coupled, NADH absorbance at 340 nm). The format is biochemical. The settings on record: PKM2 50 ng/well, ADP 0.7 mM, PEP 0.15 mM, no FBP in Reaction Mix. As for the experimental part:
• PKM2 stock enzyme solution was diluted in Reaction Buffer • 2 μL of compound was added into each well first, and then 180 μL of the Reaction Mix was added. • Reaction mixture with compound (without ADP) were incubated for 30 minutes at 4° C. • Plates were re-equilibrated to room temperature prior to adding 20 μL ADP to initiate the reaction. • Reaction progress was measured as changes in absorbance at 340 nm wavelength at room temperature (25° C.) Reaction Mix: PKM2 (50 ng/well), ADP (0.7 mM), PEP (0.15 mM), NADH (180 μM), LDH (2 units) in Reaction Buffer Reaction Buffer: 100 mM KCl, 50 mM Tris pH 7.5, 5 mM MgCl2, 1 mM DTT, 0.03% BSA.
Regarding `CCn1c(=O)oc2cc(S(=O)(=O)Nc3cc(Cl)ccc3OC)c(C)cc21`, the AC50 (commonly the midpoint of the concentration-response curve, whichever way the signal moves) lay in the range of 1 to 10 µM.
In the case of `Cc1cc(S(=O)(=O)Nc2cccc(Cl)c2)cc2oc(=O)n(C)c12`, the AC50 was < 1 µM.
Compound `Cc1cc2c(cc1S(=O)(=O)N1CCN(Cc3ccccc3)CC1)oc(=O)n2C` returned an AC50 of 1 to 10 µM.
On to `Cc1cc2oc(=O)n(C)c2cc1S(=O)(=O)Nc1ccc(F)cc1`, for which the AC50 was < 1 µM.
The same measure for `COc1cccc(F)c1S(=O)(=O)N(C)c1ccc2sc(=O)n(C)c2c1`: 10 to 50 µM.
For the compound `COc1cccc(S(=O)(=O)Nc2cc3c(cc2C)oc(=O)n3C)c1`, the AC50 lay in the range of 10 to 50 µM.
The same measure for `Cc1cc(C)cc(NS(=O)(=O)c2ccc3oc(=O)n(C)c3c2)c1`: < 1 µM; for `COCCn1c(=O)oc2cc(C)c(S(=O)(=O)Nc3ccc(F)c(Cl)c3)cc21`: 1 to 10 µM.
The same measure for `Cc1cc2oc(=O)n(C)c2cc1S(=O)(=O)Nc1ccc(Cl)cc1`: < 1 µM; for `Cc1cc(C)cc(NS(=O)(=O)c2cc3oc(=O)n(C)c3cc2F)c1`: < 1 µM.
The compound `Cc1cc2sc(=O)sc2cc1S(=O)(=O)Nc1ccccc1F` gave an AC50 of 10 to 50 µM.
On to `Cn1c(=O)sc2cc(S(=O)(=O)Nc3ccc4ccccc4c3)ccc21`, for which the concentration at half-maximal activity (AC50) is < 1 µM.
The same measure for `Cn1c(=O)oc2cc(S(=O)(=O)Nc3ccc4ncccc4c3)ccc21`: 1 to 10 µM; for `COc1ccc(Cl)cc1S(=O)(=O)Nc1ccc(NS(=O)(=O)c2cc3c(cc2C)oc(=O)n3C)cc1`: > 100 µM.
The same measure for `Cc1ccc(NS(=O)(=O)c2ccc3c(c2)oc(=O)n3C)cc1F`: 1 to 10 µM; for `Cn1c(=O)oc2cc(F)c(S(=O)(=O)N3CCN(S(=O)(=O)c4c(F)cccc4F)CC3)cc21`: < 1 µM.
Take `COc1ccc(S(=O)(=O)Nc2cc3c(cc2Cl)oc(=O)n3C)cc1OC`: the AC50 was 10 to 50 µM.
Consider `Cn1c(=O)oc2cc(S(=O)(=O)Nc3cc(F)cc(F)c3)ccc21`, for which the AC50 was 1 to 10 µM.
The figure for `Cn1c(=O)sc2cc(S(=O)(=O)N3CCN(S(=O)(=O)c4ccccc4)CC3)ccc21` is 1 to 10 µM.
Compound `CCn1c(=O)oc2cc(C)c(S(=O)(=O)Nc3cc(Cl)ccc3OC)cc21` came in with an AC50 of 10 to 50 µM.
The figure for `COCCn1c(=O)oc2cc(S(=O)(=O)Nc3ccc(F)c(C)c3)ccc21` is < 1 µM; for `COc1ccc(Cl)cc1S(=O)(=O)Nc1ccc2sc(=O)n(C)c2c1` it is 10 to 50 µM.
`Cc1cc(C)cc(NS(=O)(=O)c2cc3c(cc2F)oc(=O)n3C)c1`: the AC50 is < 1 µM.
The figure for `Cc1cc2oc(=O)n(C)c2cc1S(=O)(=O)Nc1ccc(Cl)c(Cl)c1` is 1 to 10 µM.
The same measure for `COc1cc(NS(=O)(=O)c2ccc3c(c2)oc(=O)n3C)cc(OC)c1`: < 1 µM; for `CCn1c(=O)oc2cc(Cl)c(S(=O)(=O)Nc3ccccc3Cl)cc21`: > 100 µM; for `Cc1cc2c(cc1S(=O)(=O)N1CCN(C(=O)COc3ccc(-n4cnnn4)cc3)CC1)oc(=O)n2C`: 10 to 50 µM.
The same measure for `Cc1cc2oc(=O)n(C)c2cc1S(=O)(=O)Nc1ccc(OC(F)(F)F)c(Cl)c1`: 1 to 10 µM; for `CCn1c(=O)oc2cc(Cl)c(S(=O)(=O)Nc3ccc(F)cc3)cc21`: 10 to 50 µM.
Compound `O=c1[nH]c2cc(NS(=O)(=O)c3cccc(Cl)c3)c(Cl)cc2o1` gave an AC50 of 10 to 50 µM.
The figure for `Cc1cc2oc(=O)n(C)c2cc1NS(=O)(=O)c1cc(Cl)ccc1Cl` is 10 to 50 µM; for `CCn1c(=O)oc2cc(S(=O)(=O)Nc3ccccc3Cl)c(C)cc21` it is 1 to 10 µM.
The figure for `Cn1c(=O)oc2cc(S(=O)(=O)Nc3ccc(F)c(Cl)c3)ccc21` is < 1 µM; for `COc1ccc(S(=O)(=O)Nc2cc3[nH]c(=O)oc3cc2Cl)cc1OC` it is > 100 µM; for `COCCn1c(=O)oc2cc(S(=O)(=O)Nc3cccc(Cl)c3)ccc21` it is < 1 µM.
The figure for `Cn1c(=O)oc2cc(S(=O)(=O)Nc3ccc4ncn(S(=O)(=O)c5cccc6c5oc(=O)n6C)c4c3)ccc21` is 1 to 10 µM; for `Cc1cc(NS(=O)(=O)c2cc(CN(C)C)c3c(c2)oc(=O)n3C)ccc1F` it is > 100 µM; for `Cc1cc2oc(=O)n(C)c2cc1S(=O)(=O)Nc1ccc(Cl)c(C(F)(F)F)c1` it is 1 to 10 µM.
For the compound `Cn1c(=O)oc2cc(Cl)c(NS(=O)(=O)c3cccc(Cl)c3)cc21`, the AC50 lay within 10 to 50 µM.
The same measure for `Cc1cc(S(=O)(=O)Nc2ccc(F)c(Cl)c2)cc2oc(=O)n(C)c12`: < 1 µM.
The figure for `Cc1cc2oc(=O)n(C)c2cc1S(=O)(=O)Nc1ccc2c(c1)OCO2` is < 1 µM; for `O=c1[nH]c2cc(NS(=O)(=O)c3cccc(Cl)c3)ccc2s1` it is 10 to 50 µM.
With `Cn1c(=O)oc2cc(S(=O)(=O)Nc3cc(F)cc(Cl)c3)ccc21`, the AC50 is < 1 µM.
The figure for `Cn1c(=O)oc2cc(F)c(NS(=O)(=O)c3cccs3)cc21` is > 100 µM.
The same measure for `COc1ccc(Cl)cc1NS(=O)(=O)c1ccc2c(c1)oc(=O)n2C`: 1 to 10 µM; for `Cn1c(=O)oc2cc(S(=O)(=O)Nc3ccc(F)c(C(F)(F)F)c3)ccc21`: < 1 µM.
The same measure for `Cc1cc2oc(=O)n(C)c2cc1NS(=O)(=O)c1ccccc1Cl`: 10 to 50 µM.
The compound `COc1ccc(Cl)cc1S(=O)(=O)N1CCN(S(=O)(=O)c2ccc3c(c2)sc(=O)n3C)CC1` had an AC50 of 1 to 10 µM.
The figure for `Cc1cc2c(cc1S(=O)(=O)N1CCN(C(=O)COc3ccccc3)CC1)oc(=O)n2C` is > 100 µM; for `Cc1cc(C)cc(NS(=O)(=O)c2cc3oc(=O)n(C)c3cc2C)c1` it is < 1 µM; for `Cn1c(=O)oc2cc(S(=O)(=O)N3CCN(S(=O)(=O)c4ccc5c(c4)OCCO5)CC3)ccc21` it is < 1 µM.
The figure for `Cc1cc2c(cc1S(=O)(=O)N1CCN(S(=O)(=O)c3ccc4c(c3)OCCO4)CC1)oc(=O)n2C` is < 1 µM; for `Cc1cc(C)cc(NS(=O)(=O)c2cc3c(cc2C)oc(=O)n3C)c1` it is < 1 µM; for `O=c1oc2cc(S(=O)(=O)Nc3ccc(Cl)cc3)ccc2n1Cc1ccccc1` it is 1 to 10 µM.
The same measure for `O=c1[nH]c2cc(NS(=O)(=O)c3cccs3)ccc2o1`: 10 to 50 µM; for `Cc1cc2oc(=O)n(C)c2cc1S(=O)(=O)Nc1cccc(Cl)c1`: < 1 µM.
On to `Cn1c(=O)oc2cc(S(=O)(=O)N3CCN(S(=O)(=O)c4c(F)cccc4F)CC3)ccc21`, for which the AC50 was 1 to 10 µM.
The same measure for `Cc1cc(NS(=O)(=O)c2cc(CN3CCOCC3)c3c(c2)oc(=O)n3C)ccc1F`: 1 to 10 µM.
The same measure for `Cn1c(=O)oc2cc(S(=O)(=O)Nc3ccccc3Cl)ccc21`: 1 to 10 µM.
The same measure for `Cc1cc(C)cc(NS(=O)(=O)c2ccc3c(c2)oc(=O)n3CCc2ccccc2)c1`: 1 to 10 µM; for `Cc1cc2c(cc1S(=O)(=O)N1CCN(S(=O)(=O)c3c(F)cccc3F)CC1)oc(=O)n2C`: 1 to 10 µM.
Compound `COc1ccc(Cl)cc1S(=O)(=O)Nc1ccc2oc(=O)[nH]c2c1` had an AC50 of 10 to 50 µM.
Take `COc1ccc(S(=O)(=O)N2CCCN(S(=O)(=O)c3ccc4c(c3)sc(=O)n4C)CC2)cc1`: the AC50 was 1 to 10 µM.
The same measure for `Cc1cc2sc(=O)sc2cc1S(=O)(=O)Nc1ccc(F)cc1`: 1 to 10 µM; for `Cc1cc2oc(=O)n(C)c2cc1S(=O)(=O)Nc1cc(F)cc(Cl)c1`: 1 to 10 µM.
In the case of `Cn1c(=O)oc2cc(S(=O)(=O)Nc3cccc(Cl)c3)ccc21`, the AC50 was < 1 µM.
The same measure for `COc1ccc(Cl)cc1NS(=O)(=O)c1cc2c(cc1Cl)oc(=O)n2C`: 1 to 10 µM; for `Cn1c(=O)oc2cc(Cl)c(S(=O)(=O)Nc3ccccc3Cl)cc21`: 1 to 10 µM.
Take `Cn1c(=O)oc2cc(S(=O)(=O)Nc3ccc4c(c3)OCCO4)ccc21`: the AC50 was in the range of 1 to 10 µM.
The figure for `Cc1cc2sc(=O)sc2cc1S(=O)(=O)Nc1ncc(C(F)(F)F)cc1Cl` is 1 to 10 µM.
On to `Cn1c(=O)sc2cc(S(=O)(=O)Nc3cccc(Cl)c3)ccc21`, for which the AC50 was < 1 µM.
The same measure for `CCn1c(=O)sc2ccc(NS(=O)(=O)c3c(F)cccc3F)cc21`: 1 to 10 µM.
The same measure for `O=c1[nH]c2cc(NS(=O)(=O)c3cccs3)c(Cl)cc2o1`: 1 to 10 µM.
The same measure for `Cc1ccc(NS(=O)(=O)c2cc3c(cc2C)oc(=O)n3C)cc1C`: < 1 µM.
The compound `Cc1cc2sc(=O)sc2cc1S(=O)(=O)Nc1ccccc1Cl` yielded a concentration at half-maximal activity (AC50) of 1 to 10 µM.
The same measure for `CCn1c(=O)oc2cc(S(=O)(=O)Nc3ccccc3Cl)ccc21`: 1 to 10 µM.
The figure for `Cn1c(=O)oc2cc(S(=O)(=O)Nc3ccc(Cl)c(F)c3)ccc21` is 1 to 10 µM.
The same measure for `Cn1c(=O)oc2cc(F)c(S(=O)(=O)Nc3ccc(Cl)cc3)cc21`: 1 to 10 µM.
Compound `Cn1c(=O)oc2cc(S(=O)(=O)Nc3ccccc3)ccc21` returned an AC50 of 1 to 10 µM.
The same measure for `COCCn1c(=O)oc2cc(S(=O)(=O)Nc3cccc(Cl)c3)cc(C)c21`: < 1 µM.
The same measure for `Cc1cc(C)cc(NS(=O)(=O)c2ccc3c(c2)oc(=O)n3C)c1`: < 1 µM; for `Cc1cc(NS(=O)(=O)c2ccc3c(c2)oc(=O)n3C)ccc1Cl`: < 1 µM.
The same measure for `Cc1cc2c(cc1S(=O)(=O)Nc1ccc(F)cc1)oc(=O)n2C`: 1 to 10 µM; for `CCn1c(=O)oc2cc(C)c(NS(=O)(=O)c3cc(Cl)ccc3OC)cc21`: 10 to 50 µM; for `COc1ccc(S(=O)(=O)N2CCN(S(=O)(=O)c3ccc4c(c3)sc(=O)n4C)CC2)cc1`: < 1 µM.
As for `CCc1cccc(NS(=O)(=O)c2cc3c(cc2C)oc(=O)n3C)c1`, the AC50 was < 1 µM.
The same measure for `Cc1cc2oc(=O)n(C)c2cc1S(=O)(=O)Nc1ccc(F)c(Cl)c1`: < 1 µM; for `COc1ccc(Cl)cc1S(=O)(=O)Nc1ccc2c(c1)sc(=O)n2C`: 10 to 50 µM.
